Reference: ChEMBL document CHEMBL1133580, “Successful virtual screening of a chemical database for farnesyltransferase inhibitor leads” (J Med Chem, 2000)
Calls of active or inactive are those of the source. The rule behind the calls is not given here.

Legend:
Assay type in all cases: protein-complex assay
[1] = target: T1, Protein farnesyltransferase (Rattus norvegicus) (UniProt Q04631+Q02293); assay: In vitro inhibition of farnesyl transferase (FT) by using FT [3H]-SPA kit; IA is inactive
[2] = target: T1, Protein farnesyltransferase (Rattus norvegicus); assay: In vitro inhibition of farnesyl transferase (FT) by using FT [3H]-SPA kit at the dose of 100 uM
[3] = target: T1, Protein farnesyltransferase (Rattus norvegicus); assay: In vitro inhibition of farnesyl transferase (FT) by using FT [3H]-SPA kit at the dose of 500 uM
[4] = target: Protein farnesyltransferase (Rattus norvegicus, UniProt Q02293+Q04631); assay: In vitro inhibition of Farnesyltransferase (FT) by using FT [3H]-SPA kit.

Row | Structure (SMILES) | inhibition [1] | inhibition [2] | other results
1 | O=C(Cc1c(Cl)cc(Cl)cc1Cl)C(=O)Oc1c(Cl)cc(Cl)cc1Cl | inactive |  | 
2 | CC(C)C(NC(=O)OCc1ccccc1)C(=O)NC(C)(C)C (stereo not drawn) | inactive |  | 
3 | CSc1nc(N/C=C(\C#N)S(=O)(=O)c2ccccc2Cl)nc(N(C)C)n1 | inactive |  | 
4 | O=C1NC(=S)S/C1=C\c1ccccc1I |  | 39.2% | 
5 | COc1cc(C(c2c(O)oc3ccccc3c2=O)c2c(O)oc3ccccc3c2=O)cc(OC)c1OC |  | 27.8% | 
6 | CCN(CC#N)c1ccc(/C=N/c2ccc(SC)cc2)cc1 |  |  | inhibition [3]: 15.8%
7 | Nc1c(C(=O)Nc2ccccc2)sc2nc3c(c(-c4cccnc4)c12)CCC3 |  |  | inhibition [3]: 23.9%
8 | CN(C)c1ccc(C(=O)N/N=C/c2ccccc2[N+](=O)[O-])cc1 |  |  | inhibition [3]: 28.3%
9 | Cc1c(/N=C/N(C(=O)c2ccccc2)c2cccc([N+](=O)[O-])c2C)cccc1[N+](=O)[O-] |  |  | inhibition [3]: 17%
10 | O=[N+]([O-])c1cc(C(F)(F)F)cc([N+](=O)[O-])c1Oc1ccc(S(=O)(=O)N2CCOCC2)cc1 |  |  | inhibition [3]: 50.8%
11 | COc1ccc(C=C(C(=O)c2ccccc2)C(=O)c2ccccc2)cc1 |  | 30% | 
12 | CCN(CC)c1cccc(OC(=O)Nc2cccc(C(F)(F)F)c2)c1 |  |  | inhibition [3]: 21.2%
13 | O=[N+]([O-])c1ccc(C2CC(c3cccnc3)=NN2c2ccccc2)cc1 (stereo not drawn) |  | 43.9% | 
14 | COc1cccc(C2Nc3ccccc3CN2NS(=O)(=O)c2ccc(C)cc2)c1O (stereo not drawn) |  |  | inhibition [3]: 16.8%
15 | NC(=O)c1cc2c(c([N+](=O)[O-])c1)-c1c(cc(C(N)=O)cc1[N+](=O)[O-])C2=O |  |  | inhibition [3]: 27.3%
16 | COc1ccccc1/N=C(\S)NC1CCCCCCCCCCC1 | inactive |  | 

Row | Structure (SMILES) | inhibition [1] | inhibition [2] | other results
17 | Cc1ccc(S(=O)(=O)NC2(Nc3cccc(C)c3)C(Cl)=C(Cl)C(=O)C(Cl)(Cl)C2(Cl)Cl)cc1 (stereo not drawn) |  |  | inhibition [3]: 24.9%
18 | O=C1c2cc([N+](=O)[O-])cc(C(=O)N3CCCCC3)c2-c2c1cc([N+](=O)[O-])cc2[N+](=O)[O-] |  |  | IC50 [4]: 96 µM
19 | O=C(OCC(F)(F)C(F)(F)C(F)(F)C(F)(F)F)c1cc([N+](=O)[O-])cc2c1-c1c(cc([N+](=O)[O-])cc1[N+](=O)[O-])C2=O |  | 41.1% | 
20 | Cc1c(-c2ccnc(SCc3ccccc3)n2)sc2ccc(Cl)cc12 | inactive |  | 
21 | O=C1c2cccc([N+](=O)[O-])c2C(=O)N1c1ccc(S(=O)(=O)c2ccc(N3C(=O)c4cccc([N+](=O)[O-])c4C3=O)cc2)cc1 | inactive |  | 
22 | Cc1ccc(S(=O)(=O)C(Cl)(Cl)S(=O)(=O)c2ccc(C)cc2)cc1 |  | 41.6% | 
23 | COc1ccc(CCN2C(=O)CS/C2=N\c2c(C)cccc2C)cc1OC | inactive |  | 
24 | O=C(N/N=C/c1ccccc1O)N(c1ccccc1)c1ccccc1 | inactive |  | 
25 | Cc1ccc(S(=O)(=O)N(C)c2ccc(Cl)cc2C2=NCC(C)(C)c3ccccc32)cc1 |  | 16.8% | 
26 | CCCCCCn1c(N)c(C#N)c2ccc([N+](=O)[O-])cc2c1=O |  | 32.2% | 
27 | Clc1ccc(-c2cc(-c3csc(N/N=C/c4ccccc4)n3)on2)c(Cl)c1 | inactive |  | 
28 | O=C(Cc1cccc2ccccc12)NC(NC(=S)N1CCOCC1)C(Cl)(Cl)Cl (stereo not drawn) |  | 23.8% | 
29 | Cc1cc(C)c(S(=O)(=O)Cc2ccccc2)c(OC(C)C)n1 | inactive |  | 
30 | Cc1cc(-c2nc(-c3ccc(C(F)(F)F)cc3)no2)n(C)n1 | inactive |  | 
31 | CC(=O)OCC(COC(C)=O)(CN1C(=O)c2ccccc2C1=O)CN1C(=O)c2ccccc2C1=O |  |  | inhibition [3]: 60.2%

More lines, main results first:

Row | inhibition [1] | inhibition [2] | Structure (SMILES) | other results
32 |  | 19.7% | O=C(Oc1cc(S(=O)(=O)c2ccccc2)ccc1[N+](=O)[O-])c1cccnc1Cl | 
33 | inactive |  | O=[N+]([O-])c1ccc(-c2csc(-c3ccc(Cl)cc3)n2)cc1CS(=O)(=O)c1ccc(Cl)cc1 | 
34 |  | 24.5% | CC(=O)c1cc(C(=O)c2ccc(F)cc2)n2cnc3cc(F)ccc3c12 | 
35 | inactive |  | N=C(NOC(=O)Nc1ccc(Cl)cc1)c1ccc(OCc2ncc(C(F)(F)F)cc2Cl)cc1 | 
36 | inactive |  | COc1cccc(NS(=O)(=O)c2ccc(-c3ccc(S(=O)(=O)Nc4cccc(OC)c4)s3)s2)c1 | 
37 |  | 26.4% | O=C(Nc1ccc(F)cc1[N+](=O)[O-])Oc1ccc2cc(Br)ccc2c1 | 
38 | inactive |  | O=C(NC(=O)C(c1ccc(Cl)cc1)c1ncc(C(F)(F)F)cc1Cl)Nc1ccc(Cl)cc1 (stereo not drawn) | 
